Test results reported in patent US8927046B2, “Resveratrol compositions” (DSM IP Assets B.V., priority 2009, dated 2015).

Columns and labels:
Type in all cases: physicochemical
[1] = trans-resveratrol suspended in mineral drink water (Arkina) after pasteurization at 80° C. for 1 minute; HPLC concentration and deposit observation; settings: for Concentration after 18 hours / Concentration after 5 days / Concentration initial: HPLC
Protocol: (§1) At 80° C. in water, resveratrol crystals need more than 15 minutes to dissolve completely to reach a concentration of 120 mg/liter. […] After the milling, the resveratrol CWS is dissolved within 1 minute at 80° C. 1 minute at 80° C. are standard conditions for the pasteurization step for the production of the beverages. This dissolution of the resveratrol during this pasteurization step ensures a good physical stability of the resveratrol in the beverages.
Different concentration of Resvida™ (resveratrol cryst.) not milled were dispersed in mineral drink water (Arkina) and pasteurized at 80° C. for 1 minute. The following results with trans-resveratrol suspended in water (analysis done with HPLC) have been obtained:
This powder was dissolved in mineral drink water (Arkina) and pasteurized at 80° C. for 1 minute. The following results with trans-resveratrol suspended in water (analysis done with HPLC) have been obtained: […]

[2] = Deposits or visible recrystallization in beverages
Excerpt: Preparation: • Dissolve potassium sorbate in a small quantity of water. • Add citric acid solution, dry vitamin E 15% CC and resveratrol CWS. • Stir until all ingredients have dissolved. • Add sugar, stir again and add water to 1 liter. • Fill into appropriate packages and pasteurize or pasteurize and fill aseptically.
Preparation: • Dissolve potassium sorbate in a part of water under stirring. • Add resveratrol CWS under further stirring. • Add sugar syrup, ascorbic acid, citric acid solution, water-soluble flavour and beta-carotene solution, one after the other, under stirring (no high-speed mixer). • Dilute the bottling syrup to one liter of beverage. • Fill into appropriate packages and pasteurize or pasteurize and fill aseptically.

[3] = Dissolution time in water at 80° C.; settings: at 80° C. in water, to reach a concentration of 120 mg/liter
Protocol: as §1

[4] = theoretical concentration 81.5 mg/liter, mineral drink water, pasteurized 80° C. 1 minute
[5] = theoretical concentration 98.5 mg/liter, mineral drink water, pasteurized 80° C. 1 minute
[6] = theoretical concentration 119 mg/liter, mineral drink water, pasteurized 80° C. 1 minute
[7] = theoretical concentration 160 mg/liter, mineral drink water, pasteurized 80° C. 1 minute
[8] = theoretical concentration 205.5 mg/liter, mineral drink water, pasteurized 80° C. 1 minute

Observation [1, 4]: Deposits +
Concentration after 18 hours [1, 4]: 62.0 µg/mL
Concentration after 5 days [1, 4]: 65.0 µg/mL
Concentration initial [1, 4]: 71.8 µg/mL
Concentration after 18 hours [1, 5]: 67.0 µg/mL
Concentration after 5 days [1, 5]: 47.1 µg/mL
Concentration initial [1, 5]: 87.4 µg/mL
Concentration after 18 hours [1, 6]: 67.7 µg/mL
Concentration after 5 days [1, 6]: 55.5 µg/mL
Concentration initial [1, 6]: 102.6 µg/mL
Concentration after 18 hours [1, 7]: 67.5 µg/mL
Concentration after 5 days [1, 7]: 46.4 µg/mL
Concentration initial [1, 7]: 123.7 µg/mL
Concentration after 18 hours [1, 8]: 61.3 µg/mL
Concentration after 5 days [1, 8]: 40.5 µg/mL
Concentration initial [1, 8]: 142.0 µg/mL
time to dissolve completely [3]: more than 15 minutes
SMILES: Oc1ccc(C=Cc2cc(O)cc(O)c2)cc1 [Resvida, 3,5,4′-trihydroxystilbene]
physical stability of resveratrol dissolved at 80° C. ([1]; at room temperature, after dissolution in water at 80° C.): crystallize and make deposits within a couple of days
deposit when used instead of the CWS form ([2]; near water beverage of Example 9): a deposit remained which could not be dissolved
deposit when used instead of the CWS form ([2]; soft drink of Example 10): a deposit remains which can not be dissolved
